Experimental data from patent publication US20100266569A1, “PROSTATIC ACID PHOSPHATASE FOR THE TREATMENT OF PAIN” (priority 2007, published 2010).
Entries after “also recorded” stand apart in the source; their conditions may differ.

Assays:
[1] = system: wild-type C57BL/6 male mice; experiment: Noxious thermal sensitivity, Hargreaves method (paw withdrawal latency to radiant heat) after i.t. injection; type: in vivo, mouse
Experimental: Behavior. C57BL/6 male mice, 2-3 months old, were purchased from Jackson Laboratories (Bar Harbor, Maine, United States of America) for all behavioral experiments involving PAP protein injections. All mice were acclimated to the testing room, equipment and experimenter for one day before behavioral testing. The experimenter was blind to genotype and drug treatment during behavioral testing.
Thermal sensitivity was measured by heating one hindpaw with a Plantar Test apparatus (IITC) following the Hargreaves method (Hargreaves et al., 1988). The radiant heat source intensity was calibrated so that a paw withdrawal reflex was evoked in ˜10 seconds, on average, in wild-type C57BL/6 mice. Cutoff time was 20 s. One measurement was taken from each paw per day to determine paw withdrawal latency. To perform the tail immersion assay, mice were gently restrained in a towel and the distal one-third of the tail was immersed in 46.5° C. water. Latency to withdrawal the tail was measured once per mouse. Mechanical sensitivity was measured using semi-rigid tips attached to an Electronic von Frey apparatus (IITC) as described elsewhere (Cunha et al., 2004; Inoue et al., 2004). Three measurements were taken from each paw (separated at 5 min. intervals) then averaged to determine paw withdrawal threshold in grams.
Intrathecal injections. hPAP, bPAP and vehicle controls were injected into the lumbar region of unanesthetized mice as described (Fairbanks, 2003).
Intrathecal injection was chosen because PAP protein is unlikely to reach spinal cord tissue if injected intraperitoneally.

[2] = system: wild-type C57BL/6 male mice; type: in vivo, mouse
Text: Signs of immune and microglial activation can be monitored using molecular markers.

[3] = biological target: T1, A1-adenosine receptor (A1R) (Mus musculus, UniProt Q60612); experiment: Antagonism of hPAP anti-nociception by the A1R antagonist CPX, CFA model; type: in vivo
T1 construct: endogenous in cells; host or cells: wild-type C57BL/6 mice, in vivo (CPX 1 mg/kg i.p.)
T1 sequence (Q60612 1-326): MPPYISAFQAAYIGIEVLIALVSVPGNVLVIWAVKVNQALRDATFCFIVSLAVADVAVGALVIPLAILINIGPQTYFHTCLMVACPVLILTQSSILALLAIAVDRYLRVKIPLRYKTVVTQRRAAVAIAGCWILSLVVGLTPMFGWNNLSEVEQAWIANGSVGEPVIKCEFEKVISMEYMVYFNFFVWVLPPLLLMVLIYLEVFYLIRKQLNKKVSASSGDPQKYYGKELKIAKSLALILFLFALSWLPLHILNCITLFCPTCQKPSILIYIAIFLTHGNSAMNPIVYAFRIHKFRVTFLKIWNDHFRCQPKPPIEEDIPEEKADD
Experimental: Wild-type mice were tested for noxious thermal (FIG. 29A) and mechanical (FIG. 29B) sensitivity before (baseline, BL) and following injection of Complete Freund's Adjuvant (CFA-arrow) into one hindpaw (inflamed paw, open circles or dark squares). The non-inflamed hindpaw served as control (shaded circles or squares). All mice were injected with active hPAP (hPAP-arrow; 250 mU, i.t.). Two days later, half the mice were injected with vehicle (CPXN-arrow, circles; intraperitoneal (i.p.); 1 h before behavioral measurements) while the other half were injected with 8-cyclopentyl-1,3-dipropylxanthine (CPX/V-arrow, squares; 1 mg/kg i.p.; 1 h before behavioral measurements). […] All data are presented as means±SEM.
The responses of wild-type and A1R^−/− mice were also tested using the CFA chronic inflammatory pain model and the SNI neuropathic pain model.

PAP (bPAP, mPAP) = experiment: Fluorometric acid phosphatase assay (DiFMUP, EnzChek); type: biochemical, bovine; mouse; details: L-tartrate 10 mM
Experimental: FIG. 3 is a set of bar graphs showing a fluorometric assay to quantify acid phosphatase activity. […] Right-hand Bar Graph: Mouse prostatic acid phosphatase (mPAP) assayed from transfected cell lysates. Activity is reduced by the PAP inhibitor L-tartrate (10 mM). These assays were performed following the manufacturers protocol (EnzChek Assay, Invitrogen, Carlsbad, Calif., United States of America) and quantified using a fluorescent microplate reader.
A way to quantify PAP activity was needed so that reproducible amounts of active PAP protein could be added to cultured cells or injected into live mice for the experiments described below. To accomplish this, two well-established methods were tested for measuring PAP activity: 1) a colorimetric assay using para-nitrophenyl phosphate (p-NPP) hydrolysis; and 2) a fluorometric assay using difluoro-4-methylumbelliferyl phosphate (DiFMUP) hydrolysis (commercially available as the EnzChek Acid Phosphatase kit from Invitrogen, Carlsbad, Calif., United States of America). Based on direct comparisons, it was determined that the fluorometric assay was much more sensitive than p-NPP for quantification of PAP activity. […] This fluorometric assay can thus be used to quantify phosphatase activity of pure PAP protein and PAP from cell lysates.

[4] = system: wild-type C57BL/6 male mice; experiment: LPA-evoked sensitization in vivo (i.t. LPA with or without bPAP); details: 1 nmol LPA i.t., alone or incubated with 20 μU bPAP 10 min at 37° C.
Experimental: First, mechanical sensitivity was measured with an electronic von Frey apparatus (IITC). Then, thermal sensitivity was measured using the Hargreaves method (radiant heating of hindpaw; IITC Plantar Test Apparatus).

Rat1 cells = experiment: LPA-evoked calcium signaling (Fura2-AM) with LPA pre-incubated with bPAP; type: cell-based, rat; details: 1 μM LPA incubated 1.5 hr at 37° C. with or without 0.2 mU bPAP, applied 1 minute
Experimental: (“a” in FIG. 4). In parallel, a second tube was incubated containing 1 μM LPA (without bPAP) for 1.5 hr at 37° C. (“b” in FIG. 4). Rat1 cells were loaded with the calcium-sensitive dye Fura2-acetoxymethyl (AM) ester (Dong et al., 2001), and (LPA+bPAP) applied to these cells for 1 minute (see “a” in FIG. 4). Following a brief washout period, (LPA) was applied to the cells for 1 minute (see “b” in FIG. 4).

OC[C@H]1O[C@@H](n2cnc3c(NC4CCCC4)ncnc32)[C@H](O)[C@@H]1O [CPA, N^6-cyclopentyladenosine]
duration of effect on paw withdrawal latency, in words ([1]; i.t., compared with hPAP): short-term effects (lasting hours not days)
effect on noxious thermal sensitivity / paw withdrawal latency ([1]; uninjured wild-type mice, i.t. injection (bPAP 20 μU; hPAP 1.3 mg/mL or 250 mU; ALP 25,000 mU)): dose-dependent increases in paw withdrawal latency
motor paralysis ([2]; two highest i.t. doses (dose range 0.0005 nmol-5 nmol)): transient paralysis; also recorded: fore- and hindlimb paralysis

CCCn1c(=O)c2[nH]c(C3CCCC3)nc2n(CCC)c1=O [CPX, 8-cyclopentyl-1,3-dipropylxanthine]
effect on thermal or mechanical sensitivity after hPAP effects wore off ([3]; 1 mg/kg i.p. on day 9): did not affect thermal or mechanical sensitivity
effect on anti-nociceptive effects of hPAP ([3]; 1 mg/kg i.p., two days after hPAP 250 mU i.t., 1 h before behavioral measurements): transiently reversed the anti-nociceptive effects of hPAP in control and inflamed hindpaws; also recorded: transiently antagonized all anti-nociceptive effects of hPAP

O=C(O)[C@H](O)[C@@H](O)C(=O)O [L-tartrate]
effect on PAP phosphatase activity (PAP (bPAP, mPAP)): inhibited; also recorded: reduced

CN1CC[C@]23c4c5ccc(O)c4O[C@H]2[C@@H](O)C=C[C@H]3[C@H]1C5.O=S(=O)(O)O [morphine, morphine sulfate]
increase in paw withdrawal latency above baseline ([1]; single i.t. injection, highest doses): 62.2%±9.9%
side effects ([2]; mouse, in vivo): Side-effects were observed at the two highest doses

lysophosphatidic acid [LPA]
behavioral sensitization (mechanical allodynia, thermal hyperalgesia) [4]: caused long-lasting mechanical allodynia and thermal hyperalgesia
change of intracellular calcium levels (Rat1 cells): dramatically changed
